Values after ≈ are worked out from the molar mass of the structure shown. Where two headings read alike, the source gives them in different places.
Test: Determination of solubility of monomers in PBS (HPLC of filtrate against calibration curve)
Assay type: physicochemical
Settings: monomer in PBS (pH 7.4), filtered; for solubility at 2 h: aqueous buffer, thermodynamic from solid
Procedure: About 30 mg of the monomer and 2 mL of PBS (pH 7.4) were added to a 2 dram vial. The vial was agitated on a vortex mixer for 2 h. If all the solid dissolved, more solid was added and agitation was continued. The mixture was filtered using a syringe filter to remove undissolved monomer. The clear filtrate was analyzed by HPLC by injecting 5 microliter of the filtrate. The area of the peak obtained was measured. A calibration curve was obtained by injecting known concentration of the monomer in methanol and plotting concentration against the area of the peaks obtained. Using this calibration curve the solubility of the monomer in PBS at ambient temperature was determined.
To determine the solubility at 37° C., the vials were placed in an incubator at 37° C. for 2 h. The mixture was then quickly filtered using syringe filter and then diluted 2× with PBS to prevent precipitation of the monomer. The solubility is determined using procedures similar to that used at room temperature solubility.

[1] = ambient temperature / 25° C., agitated 2 h

SMILES	Solubility, mg/mL, 25° C. [1] [mg/mL]	Solubility, mg/mL, 37° C. (incubator at 37° C. for 2 h, diluted 2× with PBS) [mg/mL]	solubility at 2 h (ambient temperature / 25° C., agitated 2 h, read-out: Solubility, mg/mL, 25° C.) [mg/mL]	solubility at 2 h (incubator at 37° C. for 2 h, diluted 2× with PBS, read-out: Solubility, mg/mL, 37° C.) [mg/mL]
CCOC(=O)C(Cc1ccc(Oc2ccc(O)cc2)cc1)NC(=O)CCc1ccc(O)cc1 (stereo not shown) [DAT-Thyronine ethyl ester]	<0.05	–	–	–
CCOC(=O)[C@H](Cc1ccc(O)cc1)NC(=O)CCc1ccc(O)cc1 [DAT-tyrosine ethyl ester (DTE), DAT-tyrosine ethyl ester, reference compound]	0.74 (≈ 2.07 mM)	–	–	–
CCOC(=O)C(Cc1c[nH]c2ccc(O)cc12)NC(=O)CCc1ccc(O)cc1 (stereo not shown) [DAT-5-hydroxytryptophan ethyl ester, DAT-5-Hydroxytryptophan Ethyl Ester]	0.15 (≈ 0.378 mM)	0.43 (≈ 1.08 mM)	–	–
CCOC(=O)C1CC(O)CN1C(=O)CCc1ccc(O)cc1 (stereo not drawn) [DAT-trans-Hydroxyproline ethyl ester, DAT-Hydroxyproline Ethyl Ester]	12 (≈ 39 mM)	–	–	–
CCOC(=O)[C@H](CO)NC(=O)CCc1ccc(O)cc1 [DAT-serine ethyl ester, Desaminotyrosyl Serine Ethyl Ester]	–	–	7.7 (≈ 27.4 mM)	14.1 (≈ 50.2 mM)
